Square brackets hold non-standard residues; d marks the D form. Peptide text beside a SMILES is read from it. Orn = NCCC[C@H](N)C(=O)O; AEEA = NCCOCCOCC(=O)O
Legend:
human GLP-1 R = target: T1, human GLP-1 R (Homo sapiens, UniProt P43220); test: Human GLP-1 receptor efficacy assay (cAMP induction, FlashPlate); type: cell-based; conditions: Table 2; read-out: hGLP-1 R EC50
T1 construct: expressed in transfected cells
Procedure: On the day of analysis, growth medium was removed and the cells were washed once with 200 μl Tyrode buffer [Tyrode's Salts (9.6 g/l), 10 mM HEPES, pH 7.4]. […] The reaction was stopped by addition of 25 μl 0.5 M HCl and incubated on ice for 60 min.

human CCK-B R = target: T2, human CCK-B R (Homo sapiens, UniProt P32239); test: Human CCK-B receptor efficacy assay (AlphaScreen SureFire p-ERK); type: cell-based; conditions: Table 2; read-out: hCCK-B R EC50
T2 construct: expressed in transfected cells
T2 sequence (P32239 1-447): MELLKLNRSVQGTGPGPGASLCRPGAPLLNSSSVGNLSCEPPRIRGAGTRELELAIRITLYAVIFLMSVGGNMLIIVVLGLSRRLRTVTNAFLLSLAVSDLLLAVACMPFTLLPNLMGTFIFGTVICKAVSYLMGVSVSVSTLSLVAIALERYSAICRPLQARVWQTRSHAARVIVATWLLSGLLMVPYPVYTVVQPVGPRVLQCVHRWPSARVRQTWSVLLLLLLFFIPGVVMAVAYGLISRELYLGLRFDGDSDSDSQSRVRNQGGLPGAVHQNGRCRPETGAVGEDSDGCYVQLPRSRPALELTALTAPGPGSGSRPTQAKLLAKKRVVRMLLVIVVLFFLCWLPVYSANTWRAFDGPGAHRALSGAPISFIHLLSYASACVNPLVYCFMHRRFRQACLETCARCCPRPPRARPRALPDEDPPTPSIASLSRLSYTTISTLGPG

T1 sequence (P43220 24-463): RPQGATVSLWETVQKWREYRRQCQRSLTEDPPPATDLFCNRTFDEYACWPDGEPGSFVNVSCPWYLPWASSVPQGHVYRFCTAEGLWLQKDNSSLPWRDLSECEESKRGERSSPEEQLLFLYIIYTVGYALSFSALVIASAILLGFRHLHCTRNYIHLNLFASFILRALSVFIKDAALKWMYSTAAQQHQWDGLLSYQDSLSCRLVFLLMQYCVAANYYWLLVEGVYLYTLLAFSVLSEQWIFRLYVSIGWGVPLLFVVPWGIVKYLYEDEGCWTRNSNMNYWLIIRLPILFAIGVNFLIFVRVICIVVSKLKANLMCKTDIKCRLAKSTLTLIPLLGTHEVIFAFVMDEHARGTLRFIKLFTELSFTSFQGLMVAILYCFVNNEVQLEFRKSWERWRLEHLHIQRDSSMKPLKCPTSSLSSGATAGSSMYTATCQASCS

Row | EC50 (human GLP-1 R) [nM] | EC50 (human CCK-B R) [nM] | Compound
1 | 0.038 | 15 | CC[C@H](C)[C@H](NC(=O)[C@H](Cc1ccccc1)NC(=O)[C@H](CC(C)C)NC(=O)[C@H](CCCN)NC(=O)[C@@H](NC(=O)[C@H](C)NC(=O)[C@H](CCC(=O)O)NC(=O)[C@H](CCC(=O)O)NC(=O)[C@H](CCC(=O)O)NC(=O)[C@H](CCSC)NC(=O)[C@H](CCC(N)=O)NC(=O)[C@H](CCCCN)NC(=O)[C@H](CO)NC(=O)[C@H](CC(C)C)NC(=O)[C@H](CC(=O)O)NC(=O)[C@H](CO)NC(=O)[C@@H](NC(=O)[C@H](Cc1ccccc1)NC(=O)[C@@H](NC(=O)CNC(=O)[C@H](CCC(=O)O)NC(=O)CNC(=O)[C@@H](N)Cc1c[nH]cn1)[C@@H](C)O)[C@@H](C)O)C(C)C)C(=O)N[C@@H](CCC(=O)O)C(=O)N[C@@H](Cc1c[nH]c2ccccc12)C(=O)N[C@@H](CC(C)C)C(=O)N[C@@H](CCCCN)C(=O)N[C@@H](CC(N)=O)C(=O)NCCOCCOCC(=O)NCCOCCOCC(=O)N[C@@H](Cc1ccc(O)cc1)C(=O)NCC(=O)N[C@@H](Cc1c[nH]c2ccccc12)C(=O)N[C@@H](CC(C)C)C(=O)N[C@@H](CC(=O)O)C(=O)N[C@@H](Cc1ccccc1)C(N)=O [Compound 66, [Orn20]Exendin-4(1-28)-Peg3-Peg3-[Leu4]Gastrin6] (H-HGEGTFTSDLSKQMEEEAV[Orn]LFIEWLKN[AEEA][AEEA]YGWLDF-NH2)
2 | 0.032 | 15 | CC[C@H](C)[C@H](NC(=O)[C@H](Cc1ccccc1)NC(=O)[C@H](CC(C)C)NC(=O)[C@H](CCCNC(=N)N)NC(=O)[C@@H](NC(=O)[C@H](C)NC(=O)[C@H](CCC(=O)O)NC(=O)[C@H](CCCCN)NC(=O)[C@H](CCC(=O)O)NC(=O)[C@H](CCSC)NC(=O)[C@H](CCC(N)=O)NC(=O)[C@H](CCCCN)NC(=O)[C@H](CO)NC(=O)[C@H](CC(C)C)NC(=O)[C@H](CC(=O)O)NC(=O)[C@H](CO)NC(=O)[C@@H](NC(=O)[C@H](Cc1ccccc1)NC(=O)[C@@H](NC(=O)CNC(=O)[C@H](CCC(=O)O)NC(=O)CNC(=O)[C@@H](N)Cc1c[nH]cn1)[C@@H](C)O)[C@@H](C)O)C(C)C)C(=O)N[C@@H](CCC(=O)O)C(=O)N[C@@H](Cc1c[nH]c2ccccc12)C(=O)N[C@@H](CC(C)C)C(=O)N[C@@H](CCCCN)C(=O)N[C@@H](CC(N)=O)C(=O)NCCOCCOCC(=O)NCCOCCOCC(=O)N[C@@H](Cc1ccc(O)cc1)C(=O)NCC(=O)N[C@@H](Cc1c[nH]c2ccccc12)C(=O)N[C@@H](CC(C)C)C(=O)N[C@@H](CC(=O)O)C(=O)N[C@@H](Cc1ccccc1)C(N)=O [Compound 81, [Lys16]Exendin-4(1-28)-Peg3-Peg3-[Leu4]Gastrin6] (H-HGEGTFTSDLSKQMEKEAVRLFIEWLKN[AEEA][AEEA]YGWLDF-NH2)
3 | 0.046 | 20 | CC[C@H](C)[C@H](NC(=O)[C@H](Cc1ccccc1)NC(=O)[C@H](CC(C)C)NC(=O)[C@H](CCCNC(=N)N)NC(=O)[C@@H](NC(=O)[C@H](C)NC(=O)[C@H](CCC(=O)O)NC(=O)[C@H](CCC(=O)O)NC(=O)[C@H](CCC(=O)O)NC(=O)[C@H](CC(C)C)NC(=O)[C@H](Cc1ccc(O)cc1)NC(=O)[C@H](CCCCN)NC(=O)[C@H](CO)NC(=O)[C@H](CC(C)C)NC(=O)[C@H](CCC(=O)O)NC(=O)[C@H](CO)NC(=O)[C@@H](NC(=O)[C@H](Cc1ccccc1)NC(=O)[C@@H](NC(=O)CNC(=O)[C@H](CCC(=O)O)NC(=O)CNC(=O)[C@@H](N)Cc1c[nH]cn1)[C@@H](C)O)[C@@H](C)O)C(C)C)C(=O)N[C@@H](CCC(=O)O)C(=O)N[C@@H](Cc1ccccc1)C(=O)N[C@@H](CC(C)C)C(=O)N[C@@H](CCCCN)C(=O)NCCOCCOCC(=O)NCCOCCOCC(=O)N[C@@H](Cc1ccc(O)cc1)C(=O)NCC(=O)N[C@@H](Cc1c[nH]c2ccccc12)C(=O)N[C@@H](CC(C)C)C(=O)N[C@@H](CC(=O)O)C(=O)N[C@@H](Cc1ccccc1)C(N)=O [Compound 88, [Glu9,Leu14,Phe25,Tyr13]Exendin-4(1-27)-Peg3-Peg3-[Leu4]Gastrin6] (H-HGEGTFTSELSKYLEEEAVRLFIEFLK[AEEA][AEEA]YGWLDF-NH2)
4 | 0.032 | 1300 | CC[C@H](C)[C@H](NC(=O)[C@H](Cc1ccccc1)NC(=O)[C@H](CC(C)C)NC(=O)[C@H](CCCNC(=N)N)NC(=O)[C@@H](NC(=O)[C@H](C)NC(=O)[C@H](CCC(=O)O)NC(=O)[C@H](CCC(=O)O)NC(=O)[C@H](CCC(=O)O)NC(=O)[C@H](CC(C)C)NC(=O)[C@H](Cc1ccc(O)cc1)NC(=O)[C@H](CCCCN)NC(=O)[C@H](CO)NC(=O)[C@H](CC(C)C)NC(=O)[C@H](CCC(=O)O)NC(=O)[C@H](CO)NC(=O)[C@@H](NC(=O)[C@H](Cc1ccccc1)NC(=O)[C@@H](NC(=O)CNC(=O)[C@H](CCC(=O)O)NC(=O)CNC(=O)[C@@H](N)Cc1c[nH]cn1)[C@@H](C)O)[C@@H](C)O)C(C)C)C(=O)N[C@@H](CCC(=O)O)C(=O)N[C@@H](Cc1ccccc1)C(=O)N[C@@H](CC(C)C)C(=O)N[C@@H](CCCCN)C(=O)NCCOCCOCC(=O)NCCOCCOCC(=O)N[C@@H](Cc1ccc(O)cc1)C(=O)NCC(=O)N[C@@H](Cc1ccccc1)C(=O)N[C@@H](CC(C)C)C(=O)N[C@@H](CC(=O)O)C(=O)N[C@@H](Cc1ccccc1)C(N)=O [Compound 90, [Glu9,Leu14,Phe25,Tyr13]Exendin-4(1-27)-Peg3-Peg3-[Leu4,Phe3]Gastrin6] (H-HGEGTFTSELSKYLEEEAVRLFIEFLK[AEEA][AEEA]YGFLDF-NH2)
5 | 0.068 | 18 | CC[C@H](C)[C@H](NC(=O)[C@H](Cc1ccccc1)NC(=O)[C@H](CC(C)C)NC(=O)[C@H](CCCNC(=N)N)NC(=O)[C@@H](NC(=O)[C@H](C)NC(=O)[C@H](CCC(=O)O)NC(=O)[C@H](CCC(=O)O)NC(=O)[C@H](CCC(=O)O)NC(=O)[C@H](CC(C)C)NC(=O)[C@H](Cc1ccc(O)cc1)NC(=O)[C@H](CCCCN)NC(=O)[C@H](CO)NC(=O)[C@H](CC(C)C)NC(=O)[C@H](CC(=O)O)NC(=O)[C@H](CO)NC(=O)[C@@H](NC(=O)[C@H](Cc1ccccc1)NC(=O)[C@@H](NC(=O)CNC(=O)[C@H](CCC(=O)O)NC(=O)CNC(=O)[C@@H](N)Cc1c[nH]cn1)[C@@H](C)O)[C@@H](C)O)C(C)C)C(=O)N[C@@H](CCC(=O)O)C(=O)N[C@@H](Cc1ccccc1)C(=O)N[C@@H](CC(C)C)C(=O)N[C@@H](CCCNC(=N)N)C(=O)NCCOCCOCC(=O)N[C@@H](Cc1ccc(O)cc1)C(=O)NCC(=O)N[C@@H](Cc1c[nH]c2ccccc12)C(=O)N[C@@H](CC(C)C)C(=O)N[C@@H](CC(=O)O)C(=O)N[C@@H](Cc1ccccc1)C(N)=O [Compound 91, [Arg27,Leu14,Phe25,Tyr13]Exendin-4(1-27)-Peg3-[Leu4]Gastrin6] (H-HGEGTFTSDLSKYLEEEAVRLFIEFLR[AEEA]YGWLDF-NH2)

Source: patent publication US10406207B2, “Peptide conjugates of GLP-1 receptor agonists and gastrin and their use” (priority 2010, dated 2019)
